# Assay results: ChEMBL document CHEMBL1201862, “PubChem BioAssay data set” (2004)
#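 Exposure lasted 48 hours, with cells grown in 96-well plates and compounds tested at five concentrations. GI50 = concentration required for 50% inhibition of growth.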 The source made the active and inactive calls. Cut-off read from the data, not from the text of the source: active = GI50 up to about 1.1 µM and inactive = higher.
# Legend:
# Test in all cases: NCI-60 cell line screen, 48 h
# 786-0 = test system: 786-0
# A498 = test system: A498
# EKVX = test system: EKVX
# Hs-578T = test system: Hs-578T
# MCF7 = test system: MCF7
# MOLT-4 = test system: MOLT-4
# NCI-H460 = test system: NCI-H460
# NCI-H522 = test system: NCI-H522
# NCI/ADR-RES = test system: NCI/ADR-RES
# PC-3 = test system: PC-3
# RXF 393 = test system: RXF 393
# SF-268 = test system: SF-268
# SK-MEL-2 = test system: SK-MEL-2
# SK-OV-3 = test system: SK-OV-3
# SNB-19 = test system: SNB-19
# SR = test system: SR
# T47D = test system: T47D
# U-251 = test system: U-251
# UACC-257 = test system: UACC-257
# UO-31 = test system: UO-31
SMILES,GI50 (786-0),GI50 (A498),GI50 (EKVX),GI50 (Hs-578T),GI50 (MCF7),GI50 (MOLT-4),GI50 (NCI-H460),GI50 (NCI-H522),GI50 (NCI/ADR-RES),GI50 (PC-3),GI50 (RXF 393),GI50 (SF-268),GI50 (SK-MEL-2),GI50 (SK-OV-3),GI50 (SNB-19),GI50 (SR),GI50 (T47D),GI50 (U-251),GI50 (UACC-257),GI50 (UO-31)
CCCCCC(O)C1C(=O)OC(C)C(O)/C=C/C=C/C=C/C=C\C=C(\C)C(O)CC(O)CC(O)CC(O)CC(O)CC(O)CC1O (configuration not stated),> 50 µM (inactive),> 50 µM (inactive),> 50 µM (inactive),> 50 µM (inactive),> 50 µM (inactive),> 50 µM (inactive),> 50 µM (inactive),> 50 µM (inactive),> 50 µM (inactive),> 50 µM (inactive),> 50 µM (inactive),> 50 µM (inactive),> 50 µM (inactive),> 50 µM (inactive),> 50 µM (inactive),> 50 µM (inactive),> 50 µM (inactive),> 50 µM (inactive),34.6 µM (inactive),> 50 µM (inactive)
c1ccc2c(c1)ccc1ncccc12,> 100 µM (inactive),55.8 µM (inactive),> 100 µM (inactive),> 100 µM (inactive),> 100 µM (inactive),> 100 µM (inactive),> 100 µM (inactive),> 100 µM (inactive),> 100 µM (inactive),98.2 µM (inactive),> 100 µM (inactive),> 100 µM (inactive),> 100 µM (inactive),–,85.7 µM (inactive),58.2 µM (inactive),> 100 µM (inactive),79.3 µM (inactive),> 100 µM (inactive),> 100 µM (inactive)
N#CC(/N=N/c1ccccc1)c1nc2ccccc2o1 (configuration not stated),21.8 µM (inactive),76.9 µM (inactive),20.2 µM (inactive),22.3 µM (inactive),59.3 µM (inactive),49.4 µM (inactive),96.4 µM (inactive),27.2 µM (inactive),23.8 µM (inactive),29.5 µM (inactive),22.6 µM (inactive),22.2 µM (inactive),25.4 µM (inactive),23.7 µM (inactive),30.7 µM (inactive),36.8 µM (inactive),8.13 µM (inactive),22.4 µM (inactive),> 100 µM (inactive),56.6 µM (inactive)
C=CCn1c(-c2ccc(Cl)cc2)cs/c1=N\c1ccccc1OC,> 100 µM (inactive),> 100 µM (inactive),–,> 100 µM (inactive),27.4 µM (inactive),0.179 µM (active),36 µM (inactive),–,6.5 µM (inactive),32.7 µM (inactive),> 100 µM (inactive),> 100 µM (inactive),> 74.3 µM (inactive),> 45.2 µM (inactive),> 95.5 µM (inactive),0.195 µM (active),2.34 µM (inactive),> 69.5 µM (inactive),7.46 µM (inactive),> 100 µM (inactive)
O=Cc1ccc(-c2cccc([N+](=O)[O-])c2)s1,80 µM (inactive),16.9 µM (inactive),71.4 µM (inactive),53.6 µM (inactive),> 100 µM (inactive),41.2 µM (inactive),> 100 µM (inactive),> 100 µM (inactive),94.6 µM (inactive),> 100 µM (inactive),54.3 µM (inactive),> 100 µM (inactive),> 100 µM (inactive),> 100 µM (inactive),> 100 µM (inactive),56.5 µM (inactive),86.5 µM (inactive),45.4 µM (inactive),> 100 µM (inactive),65.8 µM (inactive)
C=C1C[C@@H]2CC[C@@]34CC5O[C@H]6C(O[C@H]7CC[C@H](CC(=O)O[C@@H]8[C@@H](C)[C@@H]9O[C@@H]%10C[C@]%11(C[C@@H]%12O[C@]%13(C[C@H](C)[C@@H]%14O[C@@H]%15CC(C(O)CO)O[C@@H]%15C[C@@H]%14O%13)C[C@H](C)[C@@H]%12O%11)O[C@@H]%10C[C@@H]9O[C@H]8CC8O[C@@H](CC[C@@H]1O2)C[C@@H](C)C8(O)CO)O[C@@H]7[C@@H]6O3)[C@H]5O4 (some centres not stated),0.804 µM (active),> 1 µM (active),> 1 µM (active),0.0627 µM (active),0.579 µM (active),> 1 µM (active),0.53 µM (active),0.184 µM (active),> 1 µM (active),0.995 µM (active),0.516 µM (active),> 1 µM (active),> 0.859 µM (active),> 1 µM (active),> 1 µM (active),> 0.625 µM (active),> 1 µM (active),> 1 µM (active),> 1 µM (active),> 1 µM (active)
OCc1cc2c(ccc3sc4ccc5sc6ccc7ncccc7c6c5c4c32)s1,3.55 µM (inactive),23.5 µM (inactive),12.4 µM (inactive),8.53 µM (inactive),17.8 µM (inactive),11.5 µM (inactive),7.08 µM (inactive),11 µM (inactive),21.7 µM (inactive),5.93 µM (inactive),11.7 µM (inactive),–,14.5 µM (inactive),18.4 µM (inactive),11.3 µM (inactive),10.5 µM (inactive),8.22 µM (inactive),28.4 µM (inactive),13.6 µM (inactive),2.11 µM (inactive)
COc1ccc2c(c1)c1c(C)c3cnccc3c(C)c1n2CCCN,0.0288 µM (active),0.451 µM (active),0.307 µM (active),0.277 µM (active),0.251 µM (active),–,0.065 µM (active),0.313 µM (active),0.273 µM (active),0.0715 µM (active),0.05 µM (active),–,0.401 µM (active),0.415 µM (active),0.29 µM (active),< 0.01 µM (active),0.284 µM (active),–,0.518 µM (active),0.524 µM (active)
CCOP(=O)(C/C=C/Cn1ncc(=O)[nH]c1=O)OCC,–,> 100 µM (inactive),> 100 µM (inactive),> 100 µM (inactive),> 100 µM (inactive),> 100 µM (inactive),> 100 µM (inactive),> 100 µM (inactive),> 100 µM (inactive),> 100 µM (inactive),> 100 µM (inactive),> 100 µM (inactive),> 100 µM (inactive),–,> 100 µM (inactive),> 10 µM (inactive),> 100 µM (inactive),> 100 µM (inactive),> 100 µM (inactive),> 100 µM (inactive)
CO/C(=N\N=C(/C)C(F)(F)F)c1ccncc1,–,15.5 µM (inactive),–,> 100 µM (inactive),> 100 µM (inactive),44.5 µM (inactive),> 100 µM (inactive),> 100 µM (inactive),> 100 µM (inactive),38.7 µM (inactive),> 100 µM (inactive),–,> 100 µM (inactive),> 100 µM (inactive),> 100 µM (inactive),> 100 µM (inactive),> 100 µM (inactive),> 100 µM (inactive),–,> 100 µM (inactive)
C[C@H]1C[C@H](C)c2ccccc2N(C)/C1=N\c1ccccc1,22.9 µM (inactive),25.2 µM (inactive),25.5 µM (inactive),24.7 µM (inactive),25.1 µM (inactive),22.5 µM (inactive),15.8 µM (inactive),–,27.2 µM (inactive),29.9 µM (inactive),34.6 µM (inactive),56 µM (inactive),20.5 µM (inactive),–,37.8 µM (inactive),24.4 µM (inactive),32.8 µM (inactive),–,20.3 µM (inactive),39 µM (inactive)
CSc1nc(C)c2c(n1)SCC2,> 10 µM (inactive),> 10 µM (inactive),> 10 µM (inactive),2.52 µM (inactive),> 10 µM (inactive),> 10 µM (inactive),> 10 µM (inactive),–,> 10 µM (inactive),> 10 µM (inactive),> 10 µM (inactive),> 10 µM (inactive),–,> 10 µM (inactive),> 10 µM (inactive),> 10 µM (inactive),> 10 µM (inactive),> 10 µM (inactive),> 10 µM (inactive),> 10 µM (inactive)
CC1=C/C(=N\NC(N)=S)C(C(O)(C(F)(F)F)C(F)(F)F)C(C)(C)C1 (configuration not stated),> 10 µM (inactive),> 10 µM (inactive),> 10 µM (inactive),> 10 µM (inactive),> 10 µM (inactive),> 10 µM (inactive),> 10 µM (inactive),> 10 µM (inactive),> 10 µM (inactive),> 10 µM (inactive),> 10 µM (inactive),> 10 µM (inactive),> 10 µM (inactive),> 10 µM (inactive),> 10 µM (inactive),> 10 µM (inactive),> 10 µM (inactive),> 10 µM (inactive),> 10 µM (inactive),–
C(/C=N/c1ccccc1)=C(/Nc1ccccc1)c1ccc2ccccc2c1,2.45 µM (inactive),12.4 µM (inactive),–,2.58 µM (inactive),3.18 µM (inactive),1 µM (active),2.81 µM (inactive),3.87 µM (inactive),1.5 µM (inactive),1.55 µM (inactive),1.66 µM (inactive),4.71 µM (inactive),5.55 µM (inactive),2.76 µM (inactive),2.29 µM (inactive),0.676 µM (active),2.36 µM (inactive),2.65 µM (inactive),4.55 µM (inactive),3.13 µM (inactive)
NC(=O)C1CCCN1C(=O)C(Cc1c[nH]cn1)NC(=O)C1CCCC1 (configuration not stated),> 100 µM (inactive),23.4 µM (inactive),> 100 µM (inactive),> 100 µM (inactive),> 100 µM (inactive),> 100 µM (inactive),> 100 µM (inactive),> 100 µM (inactive),> 100 µM (inactive),> 100 µM (inactive),> 100 µM (inactive),–,–,> 100 µM (inactive),> 100 µM (inactive),> 100 µM (inactive),> 100 µM (inactive),> 100 µM (inactive),–,> 100 µM (inactive)
